Experiments:
[1] = anti-allergic activity (general statements)
[2] = system: B.S.A.-induced immune lethality in mice; assay: B.S.A.-induced immune lethality (anaphylactic shock) in actively sensitized mice; format: in vivo
Excerpt: (§1) The different symbols NS, *, ** and *** which may be found in the different tables, mean that the result is respectively not significative, significative, very significative and highly significative.
At the same dose, ketotifen has no effect.

[3] = system: ovalbumine-induced bronchospasm; assay: ovalbumine-induced bronchospasm in anaesthetized passively sensitized guinea-pigs; format: in vivo
Protocol: In the ovalbumine-induced bronchospasm in anaesthetized passively sensitized guinea-pigs, compound XI and ketotifen, administered 1 hour before the injection of ovalbumine, inhibit the bronchoconstriction (>90%) in a dose-dependant-manner respectively with following ED50 (P.O.)
For both products, the activity disappears at 24 hours.
The kinetic results, after administration by oral route of the said compounds at 0.1 mg/kg and 0.05 mg/kg (P.O.), for 1 to several hours before ovalbumine injection (1 mg/kg), are reported respectively in tables 1 and 2.
as §1

PAF induced bronchospasm = assay: PAF-induced bronchospasm in artificially-ventilated anaesthetized guinea pigs; format: in vivo; settings: for Percentage of bronchoconstriction / Percentage of effect: Table VII, PAF 60 mg/kg IV
Excerpt: as §1

[4] = system: histamine induced bronchospasm; assay: histamine-induced bronchospasm in artificially ventilated anaesthetized guinea pigs; format: in vivo; settings: Cavia porcellus, po, 1 h, read-out: ED50 (P.O.)
rat washed platelets = assay: PAF-induced aggregation of rat washed platelets in vitro; format: cell-based; settings: Platelet, PAF 5.10^-10 M
Excerpt: In vitro: effects on aggregation (IC50) induced by PAF (5·10^-10 M), rat washed platelets are as follow: IC50 Compound XI 2.10^-6 M. IC50 Ketotifen 10^-5 M.

[5] = system: histamine induced bronchospasm; assay: histamine-induced bronchospasm in artificially ventilated anaesthetized guinea pigs; format: in vivo; settings: for % of bronchoconstriction / % of effect: Table V, 0.1 mg/kg PO
Protocol: as §1
The kinetic results of the administration of compound XI and ketotifen by oral route at 0.1 mg/kg (P.O.), 1 to 27 h histamine injection (15 mg IV), are reported in table 5.

[6] = system: ovalbumine-induced bronchospasm; assay: ovalbumine-induced bronchospasm in actively sensitized guinea pigs; format: in vivo; settings: Table III, 0.1 mg/kg PO
Excerpt: as §1

[7] = system: ovalbumine-induced bronchospasm; assay: ovalbumine-induced bronchoconstriction in passively sensitized rats; format: in vivo; settings: for Percentage of bronchoconstriction / Percentage of effect: Table IV
Excerpt: as §1

[8] = Table I, 0.1 mg/kg PO, pretreatment 1 h
[9] = Table I, 0.1 mg/kg PO, pretreatment 3 h
[10] = Table I, 0.1 mg/kg PO, pretreatment 6 h
[11] = Table I, 0.1 mg/kg PO, pretreatment 9 h
[12] = Table I, 0.1 mg/kg PO, pretreatment 15 h
[13] = Table I, 0.1 mg/kg PO, pretreatment 18 h
[14] = Table I, 0.1 mg/kg PO, pretreatment 21 h
[15] = Table I, 0.1 mg/kg PO, pretreatment 24 h
[16] = Table II, 0.05 mg/kg PO, pretreatment 1 h
[17] = Table II, 0.05 mg/kg PO, pretreatment 3 h
[18] = Table II, 0.05 mg/kg PO, pretreatment 6 h
[19] = Table II, 0.05 mg/kg PO, pretreatment 9 h
[20] = Table II, 0.05 mg/kg PO, pretreatment 15 h
[21] = Table II, 0.05 mg/kg PO, pretreatment 18 h
[22] = Table II, 0.05 mg/kg PO, pretreatment 21 h

CN1CCC(=C2c3ccccc3CC(=O)c3[se]ccc32)CC1 [Compound XI, 4-(1-methyl 4-piperidyliden) 9,10-dihydro 4H-benzo [4,5] cyclohepta [1,2-b] selenophen 10-one]
anti-allergic activity compared with compound X [1]: higher activity than compound X
histamine and ovalbumine antagonist activity ([1]; oral drug): powerful histamine and ovalbumine antagonist
protective effect (in words) ([2]; 0.275 mg/kg P.O.): shows a protective effect
Mortality at 24 hours, % of mortality ([2]; 0.275 mg/kg PO): 20%
Mortality at 24 hours, % of variation ([2]; 0.275 mg/kg PO): -67.5%
Mortality at 24 hours, number of killed ([2]; 0.275 mg/kg PO): 2/10
Mortality at 24 hours, % of mortality ([2]; 0.550 mg/kg PO): 10%
Mortality at 24 hours, % of variation ([2]; 0.550 mg/kg PO): -83.7%
Mortality at 24 hours, number of killed ([2]; 0.550 mg/kg PO): 1/10
time at which the activity disappears ([3]; 0.1 mg/kg and 0.05 mg/kg P.O.): 24 h
ED50 ([3]; Cavia porcellus, po, 1 h, read-out: ED50 (P.O.)): 0.0572 µmol/kg
% of bronchoconstriction [3, 8]: 6.9 ± 1.0%
% of effect [3, 8]: -91.5 ± 1.3%
% of bronchoconstriction [3, 9]: 3.9 ± 1.1%
% of effect [3, 9]: -93.7 ± 1.7%
% of bronchoconstriction [3, 10]: 15.0 ± 11.5%
% of effect [3, 10]: -75.9 ± 18.4%
% of bronchoconstriction [3, 11]: 35.7 ± 18.8%
% of effect [3, 11]: -60.1 ± 21.1%
% of bronchoconstriction [3, 12]: 38.9 ± 13.7%
% of effect [3, 12]: -50.7 ± 17.3%
% of bronchoconstriction [3, 13]: 36.8 ± 17.5%
% of effect [3, 13]: -62.0 ± 18.1%
% of bronchoconstriction [3, 14]: 73.3 ± 14.2%
% of effect [3, 14]: -24.3 ± 14.7%
% of bronchoconstriction [3, 15]: 45.4 ± 15.2%
% of effect [3, 15]: -27.1 ± 24.4%
% of bronchoconstriction [3, 16]: 13.2 ± 5.4%
% of effect [3, 16]: -85.1%
% of bronchoconstriction [3, 17]: 17.7 ± 7.0%
% of effect [3, 17]: -80.5%
% of bronchoconstriction [3, 18]: 38.3 ± 16.5%
% of effect [3, 18]: -60.4%
% of bronchoconstriction [3, 19]: 49.2 ± 16.7%
% of effect [3, 19]: -49.2%
% of bronchoconstriction [3, 20]: 61.6 ± 18.7%
% of effect [3, 20]: -6.5%
% of bronchoconstriction [3, 21]: 50.7 ± 20.4%
% of effect [3, 21]: -48.3%
% of bronchoconstriction [3, 22]: 94.6 ± 4.4%
% of effect [3, 22]: -3.5%
inhibition of bronchoconstriction ([3]; administered 1 hour before ovalbumine, P.O., dose-dependent): > 90%
inhibition of PAF induced bronchospasm (in words) (PAF induced bronchospasm; 1 hour before PAF, 0.1 mg/kg): significantly inhibits the bronchospasm
Percentage of bronchoconstriction (PAF induced bronchospasm; 0.1 mg/kg PO): 29.4 ± 7.9%
Percentage of effect (PAF induced bronchospasm; 0.1 mg/kg PO): -62.5%
Percentage of bronchoconstriction (PAF induced bronchospasm; 1 mg/kg PO): 23.0 ± 9.7%
Percentage of effect (PAF induced bronchospasm; 1 mg/kg PO): -70.6%
ED50 [4]: 0.0169 µmol/kg
IC50 (rat washed platelets): 2000 nM
% of bronchoconstriction ([5]; 1 h): 2.0 ± 0.8%
% of effect ([5]; 1 h): -97.5 ± 1.0%
% of bronchoconstriction ([5]; 3 h): 1.0 ± 1.0%
% of effect ([5]; 3 h): -98.8 ± 1.2%
% of bronchoconstriction ([5]; 6 h): 5.4 ± 3.2%
% of effect ([5]; 6 h): -93.5 ± 3.8%
% of bronchoconstriction ([5]; 9 h): 4.9 ± 1.7%
% of effect ([5]; 9 h): -93.6 ± 2.3%
% of bronchoconstriction ([5]; 15 h): 36.6 ± 8.4%
% of effect ([5]; 15 h): -48.2 ± 11.8%
% of bronchoconstriction ([5]; 18 h): 34.9 ± 18.1%
% of effect ([5]; 18 h): 61.7 ± 19.9%
% of bronchoconstriction ([5]; 21 h): 52.9 ± 9.7%
% of effect ([5]; 21 h): 37.6 ± 11.5%
% of bronchoconstriction ([5]; 24 h): 37.9 ± 9.9%
% of effect ([5]; 24 h): -42.3 ± 15.0%
% of bronchoconstriction ([5]; 27 h): 76.8 ± 10.2%
% of effect ([5]; 27 h): +6.3 ± 14.1%
inhibition of bronchoconstriction (in words) ([5]; administered 1 hour before histamine (15 mg IV)): inhibit significantly the bronchoconstriction in a dose-dependant-manner
duration of total inhibition of the bronchospasm ([5]; during the first hours, 0.1 mg/kg P.O.): 9 h
% of bronchoconstriction ([6]; pretreatment 1 h): 3.5 ± 1.1%
% of effect ([6]; pretreatment 1 h): -96.1 ± 1.3%
% of bronchoconstriction ([6]; pretreatment 3 h): 5.0 ± 1.6%
% of effect ([6]; pretreatment 3 h): -93.4 ± 2.1%
% of bronchoconstriction ([6]; pretreatment 6 h): 2.1 ± 0.6%
% of effect ([6]; pretreatment 6 h): -97.3 ± 0.8%
% of bronchoconstriction ([6]; pretreatment 9 h): 35.5 ± 15.9%
% of effect ([6]; pretreatment 9 h): -61.1 ± 22.2%
% of bronchoconstriction ([6]; pretreatment 15 h): 42.2 ± 16.6%
% of effect ([6]; pretreatment 15 h): -50.6 ± 19.5%
% of bronchoconstriction ([6]; pretreatment 18 h): 67.1 ± 19.0%
% of effect ([6]; pretreatment 18 h): +22.7 ± 34.8%
% of bronchoconstriction ([6]; pretreatment 21 h): 50.1 ± 21.6%
% of effect ([6]; pretreatment 21 h): -8.3 ± 39.5%
Percentage of bronchoconstriction ([7]; 0.1 mg/kg PO): 18.1 ± 6.3%
Percentage of effect ([7]; 0.1 mg/kg PO): -49.4%
Percentage of bronchoconstriction ([7]; 1 mg/kg PO): 11.2 ± 2.7%
Percentage of effect ([7]; 1 mg/kg PO): -68.7%
inhibition of bronchoconstriction (in words) ([7]; passively sensitized rats): inhibits the bronchoconstriction in a dose-dependant manner

From patent US5075322A, “Selenophen derivatives, a preparation process of the same and therapeutical compositions containing them” (Societe de Conseils de Recherches et d'Applications …, priority 1989, dated 1991)
